Data reported in US9573930B2 (Quanticel Pharmaceuticals, Inc., priority 2014, dated 2017).

Target: full-length human LSD1 (Homo sapiens (Human), UniProt O60341)
Assay: In vitro enzyme inhibition assay LSD-1 (TR-FRET)
Type: biochemical
Settings: H3K4me1-biotin peptide
Protocol: This assay determines the ability of a test compound to inhibit LSD1 demethylase activity.
The enzymatic assay of LSD1 activity is based on Time Resolved-Fluorescence Resonance Energy Transfer (TR-FRET) detection.
The ability of the compounds disclosed herein to inhibit LSD1 activity was quantified and the respective IC50 value was determined.

| SMILES | IC50 [nM] |
| --- | --- |
| COc1ccc(-c2c(-c3ccc(C#N)c(F)c3)nc(N(C)C[C@@H]3CCNC3)n(C)c2=O)cc1 (stereo in doubt) [Example 56, 2-fluoro-4-[5-(4-methoxy-phenyl)-1-methyl-2-(methyl-pyrrolidin-3-ylmethyl-amino)-6-oxo-1,6-dihydro-pyrimidin-4-yl]-benzonitrile] | < 100 |
| COc1ccc(-c2c(-c3ccc(C#N)cc3)nc(N3CCC(N)CC3)n(C)c2=O)cn1 [Example 3, 4-[2-(4-amino-piperidin-1-yl)-5-(6-methoxy-pyridin-3-yl)-1-methyl-6-oxo-1,6-dihydro-pyrimidin-4-yl]-benzonitrile] | < 100 |
| Cc1ccc(-c2c(-c3ccc(C#N)cc3)nc(N3CCC(N)CC3)n(C)c2=O)cn1 [Example 4, 4-[2-(4-amino-piperidin-1-yl)-1-methyl-5-(6-methyl-pyridin-3-yl)-6-oxo-1,6-dihydro-pyrimidin-4-yl]-benzonitrile] | < 100 |
| COc1ccc(-c2c(-c3ccc(C#N)c(F)c3)nc(N3CCC(N)CC3)n(C)c2=O)cc1 [Example 6, 4-[2-(4-amino-piperidin-1-yl)-5-(4-methoxy-phenyl)-1-methyl-6-oxo-1,6-dihydro-pyrimidin-4-yl]-2-fluoro-benzonitrile] | < 100 |
| COc1ccc(-c2c(-c3ccc(C#N)c(F)c3)nc(N3CCC(N)CC3)n(C)c2=O)cn1 [Example 8, 4-[2-(4-amino-piperidin-1-yl)-5-(6-methoxy-pyridin-3-yl)-1-methyl-6-oxo-1,6-dihydro-pyrimidin-4-yl]-2-fluoro-benzonitrile] | < 100 |
| Cc1ccc(-c2c(-c3ccc(C#N)c(F)c3)nc(N3CCC(N)CC3)n(C)c2=O)cn1 [Example 9] | < 100 |
| CCc1ccc(-c2c(-c3ccc(C#N)cc3)nc(N3CCC(N)CC3)n(C)c2=O)cn1 [Example 10, 4-[2-(4-amino-piperidin-1-yl)-5-(6-ethyl-pyridin-3-yl)-1-methyl-6-oxo-1,6-dihydro-pyrimidin-4-yl]-benzonitrile] | < 100 |
| CNC1CCN(c2nc(-c3ccc(C#N)c(F)c3)c(-c3ccc(OC)cc3)c(=O)n2C)CC1 [Example 11, 2-fluoro-4-[5-(4-methoxy-phenyl)-1-methyl-2-(4-methylamino-piperidin-1-yl)-6-oxo-1,6-dihydro-pyrimidin-4-yl]-benzonitrile] | < 100 |
| CNC1CCN(c2nc(-c3ccc(C#N)c(F)c3)c(-c3ccc(OC)c(F)c3)c(=O)n2C)CC1 [Example 12, 2-fluoro-4-[5-(3-fluoro-4-methoxy-phenyl)-1-methyl-2-(4-methylamino-piperidin-1-yl)-6-oxo-1,6-dihydro-pyrimidin-4-yl]-benzonitrile] | < 100 |
| CCn1c(N2CCC(N)CC2)nc(-c2ccc(C#N)c(F)c2)cc1=O [Example 13, 4-[2-(4-amino-piperidin-1-yl)-1-ethyl-6-oxo-1,6-dihydro-pyrimidin-4-yl]-2-fluoro-benzonitrile] | 100 to 1000 |
| Cn1c(N2CCC(N)CC2)nc(-c2ccc(C#N)c(F)c2)c(C#CC2CCCC2)c1=O [Example 14, 4-[2-(4-amino-piperidin-1-yl)-5-cyclopentylethynyl-1-methyl-6-oxo-1,6-dihydro-pyrimidin-4-yl]-2-fluoro-benzonitrile] | < 100 |
| COc1ccc(-c2c(-c3ccc(C#N)c(F)c3)nc(N3CCC(N)CC3)n(CC(=O)O)c2=O)cc1 [Example 15, [2-(4-amino-piperidin-1-yl)-4-(4-cyano-3-fluoro-phenyl)-5-(4-methoxy-phenyl)-6-oxo-6H-pyrimidin-1-yl]-acetic acid] | < 100 |
| COc1ccc(-c2c(-c3ccc(C#N)c(F)c3)nc(N3CCC(N)CC3)n(CC(N)=O)c2=O)cc1 [Example 16, 2-[2-(4-amino-piperidin-1-yl)-4-(4-cyano-3-fluoro-phenyl)-5-(4-methoxy-phenyl)-6-oxo-6H-pyrimidin-1-yl]-acetamide] | < 100 |
| N#Cc1ccc(-c2cc(=O)n(CCCO)c(N3CCC(N)CC3)n2)cc1F [Example 17, 4-[2-(4-amino-piperidin-1-yl)-1-(3-hydroxy-propyl)-6-oxo-1,6-dihydro-pyrimidin-4-yl]-2-fluoro-benzonitrile] | 100 to 1000 |
| Cn1c(N2CCC(N)CC2)nc(-c2ccc(C#N)c(F)c2)c(-c2ccc3occc3c2)c1=O [Example 18, 4-[2-(4-amino-piperidin-1-yl)-5-benzofuran-5-yl-1-methyl-6-oxo-1,6-dihydro-pyrimidin-4-yl]-2-fluoro-benzonitrile] | < 100 |
| Cn1c(N2CCC(N)CC2)nc(-c2ccc(C#N)c(F)c2)c(C#N)c1=O [Example 19, 2-(4-amino-piperidin-1-yl)-4-(4-cyano-3-fluoro-phenyl)-1-methyl-6-oxo-1,6-dihydro-pyrimidine-5-carbonitrile] | < 100 |

| SMILES | IC50 [nM] |
| --- | --- |
| CNC1CCN(c2nc(-c3ccc(C#N)c(F)c3)c(-c3ccc(C)nc3)c(=O)n2C)CC1 [Example 21, 2-fluoro-4-[1-methyl-2-(4-methylamino-piperidin-1-yl)-5-(6-methyl-pyridin-3-yl)-6-oxo-1,6-dihydro-pyrimidin-4-yl]-benzonitrile] | < 100 |
| COc1ccc(-c2c(-c3ccc(C#N)c(F)c3)nc(N3CCC4(CCNC4)CC3)n(C)c2=O)cc1F [Example 22, 4-[2-(2,8-diaza-spiro[4.5]dec-8-yl)-5-(3-fluoro-4-methoxy-phenyl)-1-methyl-6-oxo-1,6-dihydro-pyrimidin-4-yl]-2-fluoro-benzonitrile] | < 100 |
| COc1ccc(-c2c(-c3ccc(C#N)c(F)c3)nc(N3CCC[C@@H](N)C3)n(C)c2=O)cc1F [Example 25, 4-[2-((3R)-3-aminopiperidyl)-5-(3-fluoro-4-methoxyphenyl)-1-methyl-6-oxohydropyrimidin-4-yl]-2-fluorobenzenecarbonitrile] | < 100 |
| COc1ncc(-c2c(-c3ccc(C#N)c(F)c3)nc(N3CCC(N)CC3)n(C)c2=O)cc1F [Example 26, 4-[2-(4-aminopiperidyl)-5-(5-fluoro-6-methoxy(3-5,6-dihydropyridyl))-1-methyl-6-oxohydropyrimidin-4-yl]-2-fluorobenzenecarbonitrile] | < 100 |
| COc1ccc(-c2c(-c3ccc(C#N)c(F)c3)nc(N3CC[C@@H](N)C3)n(C)c2=O)cc1F [Example 27, 4-[2-((3R)-3-aminopyrrolidinyl)-5-(3-fluoro-4-methoxyphenyl)-1-methyl-6-oxohydropyrimidin-4-yl]-2-fluorobenzenecarbonitrile] | < 100 |
| COc1ccc(-c2c(-c3ccc(C#N)c(F)c3)nc(N3CCC[C@H](N)C3)n(C)c2=O)cc1F [Example 28, 4-[2-((3S)-3-amino-piperidin-1-yl)-5-(3-fluoro-4-methoxy-phenyl)-1-methyl-6-oxo-1,6-dihydro-pyrimidin-4-yl]-2-fluoro-benzonitrile] | < 100 |
| COc1ccc(-c2c(-c3ccc(C#N)c(F)c3)nc(N3CC[C@H](N)C3)n(C)c2=O)cc1F [Example 29, 4-[2-((3S)-3-amino-pyrrolidin-1-yl)-5-(3-fluoro-4-methoxy-phenyl)-1-methyl-6-oxo-1,6-dihydro-pyrimidin-4-yl]-2-fluoro-benzonitrile] | < 100 |
| COc1ccc(-c2c(-c3ccc(C#N)c(F)c3)nc(N3CCC[C@@H](N)C3)n(C)c2=O)cc1 [Example 30, 4-[2-((3R)-3-aminopiperidyl)-5-(4-methoxyphenyl)-1-methyl-6-oxohydropyrimidin-4-yl]-2-fluorobenzenecarbonitrile] | < 100 |
| COc1ccc(-c2c(-c3ccc(C#N)c(F)c3)nc(N3CCC[C@H](N)C3)n(C)c2=O)cc1 [Example 31, 4-[2-((3S)-3-amino-piperidin-1-yl)-5-(4-methoxy-phenyl)-1-methyl-6-oxo-1,6-dihydro-pyrimidin-4-yl]-2-fluoro-benzonitrile] | < 100 |
| COc1ccc(-c2c(-c3ccc(C#N)c(F)c3)nc(N3CCC(C)(N)CC3)n(C)c2=O)cc1F [Example 32, 4-[2-(4-amino-4-methyl-piperidin-1-yl)-5-(3-fluoro-4-methoxy-phenyl)-1-methyl-6-oxo-1,6-dihydro-pyrimidin-4-yl]-2-fluoro-benzonitrile] | < 100 |
| Cn1c(N2CCC(N)CC2)nc(-c2ccc(C#N)c(F)c2)c(-c2cnn(CC(F)(F)F)c2)c1=O [Example 34, 4-{2-(4-amino-piperidin-1-yl)-1-methyl-6-oxo-5-[1-(2,2,2-trifluoro-ethyl)-1H-pyrazol-4-yl]-1,6-dihydro-pyrimidin-4-yl}-2-fluoro-benzonitrile] | < 100 |
| Cn1c(N2CCC(N)CC2)nc(-c2ccc(C#N)cc2)c(-c2cnn(CC(F)(F)F)c2)c1=O [Example 36, 4-{2-(4-amino-piperidin-1-yl)-1-methyl-6-oxo-5-[1-(2,2,2-trifluoro-ethyl)-1H-pyrazol-4-yl]-1,6-dihydro-pyrimidin-4-yl}-benzonitrile] | < 100 |
| Cn1cc2cc(-c3c(-c4ccc(C#N)c(F)c4)nc(N4CCC(N)CC4)n(C)c3=O)ccc2n1 [Example 37, 4-[2-(4-aminopiperidyl)-1-methyl-5-(2-methyl(2H-indazol-5-yl))-6-oxohydropyrimidin-4-yl]-2-fluorobenzenecarbonitrile] | < 100 |
| COc1c(F)cc(-c2c(-c3ccc(C#N)cc3)nc(N3CCC(N)CC3)n(C)c2=O)cc1F [Example 38, 4-[2-(4-aminopiperidyl)-5-(3,5-difluoro-4-methoxyphenyl)-1-methyl-6-oxohydropyrimidin-4-yl]benzenecarbonitrile] | < 100 |
| Cn1c(N2CCC(N)CC2)nc(-c2ccc(C#N)c(F)c2)c(-c2ccc(C(=O)O)cc2)c1=O [Example 39, 4-[2-(4-aminopiperidyl)-6-(4-cyano-3-fluorophenyl)-3-methyl-4-oxo-3-hydropyrimidin-5-yl]benzoic acid] | 100 to 1000 |
| CNC(=O)c1ccc(-c2c(-c3ccc(C#N)cc3)nc(N3CCC(N)CC3)n(C)c2=O)cc1F [Example 40, {4-[2-(4-aminopiperidyl)-6-(4-cyanophenyl)-3-methyl-4-oxo(3-hydropyrimidin-5-yl)]-2-fluorophenyl}-N-methylcarboxamide] | < 100 |
